Measured values taken from patent publication US9556165B2 (priority 2012, dated 2017).
In brackets after ≈: the same amount, converted by molar mass. Where two headings read alike, the source gives them in different places.

Assays:
Format in all cases: cell-based
S. pneumoniae 113 = experiment: MIC determination, broth microdilution (CLSI); conditions: Streptococcus pneumoniae, 113, strain 13; broth microdilution; read-out: MIC strain 13 (S. pneumoniae 113)
E. cloacae 34654 = experiment: MIC determination, broth microdilution (CLSI); conditions: Enterobacter cloacae, 34654, strain 3
S. aureus 133 = experiment: MIC determination, broth microdilution (CLSI)
E. coli ATCC25922 = experiment: MIC determination, broth microdilution (CLSI); conditions: Escherichia coli, ATCC25922, strain 1
C. freundii K21/3034 = experiment: MIC determination, broth microdilution (CLSI); conditions: Citrobacter freundii, K21/3034, strain 4
E. coli J62 = experiment: MIC determination, broth microdilution (CLSI); conditions: Escherichia coli, J62, strain 17; broth microdilution; read-out: MIC strain 17 (E. coli J62)
P. aeruginosa PAO1 = experiment: MIC determination, broth microdilution (CLSI); conditions: Pseudomonas aeruginosa, PAO1, strain 6
Bacteria = experiment: MIC determination in combination with β-lactamase inhibitors (constant 4 μg/mL)
[1] = test system: P. aeruginosa 2297 (AmpC wt); experiment: MIC determination, broth microdilution (CLSI); conditions: Pseudomonas aeruginosa, strain 7
K. pneumoniae 60 = experiment: MIC determination, broth microdilution (CLSI); conditions: Klebsiella pneumoniae, 60, strain 2
E. coli J62-TEM-3 = experiment: MIC determination, broth microdilution (CLSI); conditions: Escherichia coli, J62TEM3, read-out: MIC strain 18 (E. coli J62-TEM-3), strain 18; broth microdilution
B. fragilis 6688 = experiment: MIC determination, broth microdilution (CLSI); conditions: Bacteroides fragilis, 6688, strain 15; broth microdilution; read-out: MIC strain 15 (B. fragilis 6688)
C. perfringens DSM756 = experiment: microbe, parasite or virus in culture; conditions: Clostridium perfringens, DSM756, read-out: MIC strain 16 (C. perfringens DSM756), strain 16; broth microdilution
M. morganii 126/3048 = experiment: MIC determination, broth microdilution (CLSI); conditions: Morganella morganii, 126/3048, strain 5
H. influenzae ATCC 49247 = experiment: MIC determination, broth microdilution (CLSI); conditions: Haemophilus influenzae, ATCC49247, strain 12; broth microdilution; read-out: MIC strain 12 (H. influenzae ATCC 49247)
A. baumannii ATCC15308 = experiment: MIC determination, broth microdilution (CLSI); conditions: Acinetobacter baumannii, ATCC15308, strain 9
[2] = test system: P. aeruginosa 2297-con (AmpC derepressed); experiment: MIC determination, broth microdilution (CLSI); conditions: Pseudomonas aeruginosa, read-out: strain 8 MIC, strain 8
S. maltophilia ICB7569 = experiment: MIC determination, broth microdilution (CLSI); conditions: Stenotrophomonas maltophilia, ICB7569, strain 10
[3] = Staphylococcus aureus, 133, strain 11, read-out: strain 11 MIC
[4] = Staphylococcus aureus, 133, strain 14, broth microdilution, read-out: MIC strain 14 (S. aureus 133)

SMILES	MIC (S. pneumoniae 113)	MIC (E. cloacae 34654)	MIC (S. aureus 133; [3])	MIC (E. coli ATCC25922)	MIC (C. freundii K21/3034)	MIC (E. coli J62)	MIC (P. aeruginosa PAO1)	MIC strain 19 (E. coli J62-TEM-3 + 4 μg/mL clavulanic acid) (Bacteria)	MIC strain 20 (E. coli J62-TEM-3 + 4 μg/mL sulbactam) (Bacteria)	MIC strain 21 (E. coli J62-TEM-3 + 4 μg/mL tazobactam) (Bacteria)	MIC [1]	MIC (K. pneumoniae 60)	MIC (E. coli J62-TEM-3)	MIC (B. fragilis 6688)	MIC (C. perfringens DSM756)	MIC (M. morganii 126/3048)	MIC (H. influenzae ATCC 49247)	MIC (A. baumannii ATCC15308)	MIC [2]	MIC (S. maltophilia ICB7569)	also measured
CC1(C)[C@H](NC(=O)/C(=N\O[C@@H](COc2ccc(C(=N)NC3CNC3)cc2)C(=O)O)c2csc(N)n2)C(=O)N1OS(=O)(=O)O [Example 107, (2S)-2-({[(1Z)-1-(2-Amino-1,3-thiazol-4-yl)-2-{[(3S)-2,2-dimethyl-4-oxo-1-(sulfooxy)azetidin-3-yl]amino}-2-oxoethylidene]amino}oxy)-3-{4-[N-(azetidin-3-yl)carbamimidoyl]phenoxy}propanoic acid]	0.5 µg/mL (≈ 0.78 µM)	0.25 µg/mL (≈ 0.39 µM)	≤ 0.063 µg/mL	≤ 0.063 µg/mL	≤ 0.063 µg/mL	0.125 µg/mL (≈ 0.195 µM)	1 µg/mL (≈ 1.56 µM)	≦0.063 mg/L	≦0.063 mg/L	≦0.063 mg/L	1 µg/mL (≈ 1.56 µM)	0.125 µg/mL (≈ 0.195 µM)	4 µg/mL (≈ 6.24 µM)	8 µg/mL (≈ 12.5 µM)	0.125 µg/mL (≈ 0.195 µM)	≤ 0.063 µg/mL	≤ 0.063 µg/mL	1 µg/mL (≈ 1.56 µM)	1 µg/mL (≈ 1.56 µM)	4 µg/mL (≈ 6.24 µM)	MIC (S. aureus 133; [4]): 32 µg/mL (≈ 49.9 µM)
CC(C)(N)CNC(=N)c1ccc(OC[C@H](O/N=C(\C(=O)N[C@@H]2C(=O)N(OS(=O)(=O)O)C2(C)C)c2csc(N)n2)C(=O)O)cc1 [Example 94, (2S)-3-{4-[N-(2-Amino-2-methylpropyl)carbamimidoyl]phenoxy}-2-({[(1Z)-1-(2-amino-1,3-thiazol-4-yl)-2-{[(3S)-2,2-dimethyl-4-oxo-1-(sulfooxy)azetidin-3-yl]amino}-2-oxoethylidene]amino}oxy)propanoic acid]	0.5 µg/mL (≈ 0.761 µM)	0.125 µg/mL (≈ 0.19 µM)	≤ 0.063 µg/mL	0.125 µg/mL (≈ 0.19 µM)	0.125 µg/mL (≈ 0.19 µM)	0.25 µg/mL (≈ 0.381 µM)	2 µg/mL (≈ 3.05 µM)	0.125 µg/mL	≦0.063 mg/L	0.125 µg/mL	2 µg/mL (≈ 3.05 µM)	0.125 µg/mL (≈ 0.19 µM)	8 µg/mL (≈ 12.2 µM)	8 µg/mL (≈ 12.2 µM)	0.5 µg/mL (≈ 0.761 µM)	0.125 µg/mL (≈ 0.19 µM)	≤ 0.063 µg/mL	2 µg/mL (≈ 3.05 µM)	2 µg/mL (≈ 3.05 µM)	4 µg/mL (≈ 6.09 µM)	MIC (S. aureus 133; [4]): 32 µg/mL (≈ 48.7 µM)
CC1(C)[C@H](NC(=O)/C(=N\O[C@@H](COc2ccc(C(=N)N[C@@H]3CCCNC3)cc2)C(=O)O)c2csc(N)n2)C(=O)N1OS(=O)(=O)O [Example 88, (2S)-2-({[(1Z)-1-(2-Amino-1,3-thiazol-4-yl)-2-{[(3S)-2,2-dimethyl-4-oxo-1-(sulfooxy)azetidin-3-yl]amino}-2-oxoethylidene]amino}oxy)-3-(4-{N-[(3R)-piperidin-3-yl]carbamimidoyl}phenoxy)propanoic acid]	0.5 µg/mL (≈ 0.748 µM)	≤ 0.063 µg/mL	–	≤ 0.063 µg/mL	≤ 0.063 µg/mL	0.125 µg/mL (≈ 0.187 µM)	1 µg/mL (≈ 1.5 µM)	≦0.063 mg/L	≦0.063 mg/L	≦0.063 mg/L	1 µg/mL (≈ 1.5 µM)	0.125 µg/mL (≈ 0.187 µM)	2 µg/mL (≈ 2.99 µM)	8 µg/mL (≈ 12 µM)	0.5 µg/mL (≈ 0.748 µM)	≤ 0.063 µg/mL	≤ 0.063 µg/mL	2 µg/mL (≈ 2.99 µM)	1 µg/mL (≈ 1.5 µM)	4 µg/mL (≈ 5.98 µM)	MIC (S. aureus 133; [4]): 32 µg/mL (≈ 47.9 µM)
CC1(C)[C@H](NC(=O)/C(=N\O[C@@H](COc2ccc(C(=N)NCCNc3ncccn3)cc2)C(=O)O)c2csc(N)n2)C(=O)N1OS(=O)(=O)O [Example 110, (2S)-2-({[(1Z)-1-(2-Amino-1,3-thiazol-4-yl)-2-{[(3S)-2,2-dimethyl-4-oxo-1-(sulfooxy)azetidin-3-yl]amino}-2-oxoethylidene]amino}oxy)-3-(4-{N-[2-(pyrimidin-2-ylami-no)ethyl]carbamimidoyl}phenoxy)propanoic acid]	0.25 µg/mL (≈ 0.354 µM)	1 µg/mL (≈ 1.41 µM)	≤ 0.063 µg/mL	0.5 µg/mL (≈ 0.707 µM)	0.5 µg/mL (≈ 0.707 µM)	1 µg/mL (≈ 1.41 µM)	8 µg/mL (≈ 11.3 µM)	0.5 µg/mL	0.5 µg/mL	0.5 µg/mL	8 µg/mL (≈ 11.3 µM)	1 µg/mL (≈ 1.41 µM)	32 µg/mL (≈ 45.3 µM)	16 µg/mL (≈ 22.6 µM)	8 µg/mL (≈ 11.3 µM)	0.25 µg/mL (≈ 0.354 µM)	≤ 0.063 µg/mL	32 µg/mL (≈ 45.3 µM)	16 µg/mL (≈ 22.6 µM)	8 µg/mL (≈ 11.3 µM)	–
CC1(C)[C@H](NC(=O)/C(=N\OCCOc2ccc(C(=N)NC3CNNC3)cc2)c2csc(N)n2)C(=O)N1OS(=O)(=O)O [Example 92]	≤ 0.063 µg/mL	1 µg/mL (≈ 1.63 µM)	≤ 0.063 µg/mL	0.5 µg/mL (≈ 0.817 µM)	0.5 µg/mL (≈ 0.817 µM)	1 µg/mL (≈ 1.63 µM)	8 µg/mL (≈ 13.1 µM)	0.5 µg/mL	0.5 µg/mL	0.5 µg/mL	8 µg/mL (≈ 13.1 µM)	0.5 µg/mL (≈ 0.817 µM)	32 µg/mL (≈ 52.3 µM)	8 µg/mL (≈ 13.1 µM)	2 µg/mL (≈ 3.27 µM)	0.5 µg/mL (≈ 0.817 µM)	0.125 µg/mL (≈ 0.204 µM)	4 µg/mL (≈ 6.54 µM)	8 µg/mL (≈ 13.1 µM)	32 µg/mL (≈ 52.3 µM)	MIC (S. aureus 133; [4]): 8 µg/mL (≈ 13.1 µM)
CC1(C)[C@H](NC(=O)/C(=N\OCCOc2ccc(C(=N)NC(CN)CN)cc2)c2csc(N)n2)C(=O)N1OS(=O)(=O)O [Example 84, (2Z)-2-(2-Amino-1,3-thiazol-4-yl)-2-[(2-{4-[N-(1,3-diaminopropan-2-yl)carbamimidoyl]phenoxy}ethoxy)imino]-N-[(3S)-2,2-dimethyl-4-oxo-1-(sulfooxy)azetidin-3-yl]ethanamide]	≤ 0.063 µg/mL	0.125 µg/mL (≈ 0.204 µM)	≤ 0.063 µg/mL	≤ 0.063 µg/mL	≤ 0.063 µg/mL	0.125 µg/mL (≈ 0.204 µM)	1 µg/mL (≈ 1.63 µM)	≦0.063 mg/L	0.125 µg/mL	0.125 µg/mL	2 µg/mL (≈ 3.26 µM)	0.125 µg/mL (≈ 0.204 µM)	4 µg/mL (≈ 6.52 µM)	4 µg/mL (≈ 6.52 µM)	2 µg/mL (≈ 3.26 µM)	0.25 µg/mL (≈ 0.407 µM)	≤ 0.063 µg/mL	1 µg/mL (≈ 1.63 µM)	2 µg/mL (≈ 3.26 µM)	32 µg/mL (≈ 52.1 µM)	MIC (S. aureus 133; [4]): 2 µg/mL (≈ 3.26 µM)
CNCCNC(=N)c1ccc(OC[C@H](O/N=C(\C(=O)N[C@@H]2C(=O)N(OS(=O)(=O)O)C2(C)C)c2csc(N)n2)C(=O)O)cc1 [Example 95, (2S)-2-({[(1Z)-1-(2-Amino-1,3-thiazol-4-yl)-2-{[(3S)-2,2-dimethyl-4-oxo-1-(sulfooxy)azetidin-3-yl]amino}-2-oxoethylidene]amino}oxy)-3-(4-{N-[2-(methylamino)ethyl]carbamimidoyl}phenoxy)propanoic acid]	0.5 µg/mL (≈ 0.778 µM)	0.125 µg/mL (≈ 0.195 µM)	≤ 0.063 µg/mL	0.125 µg/mL (≈ 0.195 µM)	0.125 µg/mL (≈ 0.195 µM)	0.125 µg/mL (≈ 0.195 µM)	1 µg/mL (≈ 1.56 µM)	0.125 µg/mL	≦0.063 mg/L	0.125 µg/mL	2 µg/mL (≈ 3.11 µM)	0.125 µg/mL (≈ 0.195 µM)	4 µg/mL (≈ 6.22 µM)	8 µg/mL (≈ 12.4 µM)	2 µg/mL (≈ 3.11 µM)	≤ 0.063 µg/mL	≤ 0.063 µg/mL	2 µg/mL (≈ 3.11 µM)	2 µg/mL (≈ 3.11 µM)	4 µg/mL (≈ 6.22 µM)	–
CN(C)C(=O)[C@@H]1C[C@H](NC(=N)c2ccc(OCCO/N=C(\C(=O)N[C@@H]3C(=O)N(OS(=O)(=O)O)C3(C)C)c3csc(N)n3)cc2)CN1 [Example 42, (4S)-4-{[{4-[2-({[(1Z)-1-(2-Amino-1,3-thiazol-4-yl)-2-{[(3S)-2,2-dimethyl-4-oxo-1-(sulfooxy)azetidin-3-yl]amino}-2-oxoethylidene]amino}oxy)ethoxy]phenyl}(imino)methyl]amino}-N,N-dimethyl-L-prolinamide]	0.125 µg/mL (≈ 0.183 µM)	2 µg/mL (≈ 2.93 µM)	≤ 0.063 µg/mL	1 µg/mL (≈ 1.47 µM)	1 µg/mL (≈ 1.47 µM)	1 µg/mL (≈ 1.47 µM)	16 µg/mL (≈ 23.5 µM)	1 µg/mL	1 µg/mL	1 µg/mL	16 µg/mL (≈ 23.5 µM)	1 µg/mL (≈ 1.47 µM)	16 µg/mL (≈ 23.5 µM)	8 µg/mL (≈ 11.7 µM)	4 µg/mL (≈ 5.87 µM)	2 µg/mL (≈ 2.93 µM)	0.25 µg/mL (≈ 0.367 µM)	8 µg/mL (≈ 11.7 µM)	16 µg/mL (≈ 23.5 µM)	16 µg/mL (≈ 23.5 µM)	MIC (S. aureus 133; [4]): 16 µg/mL (≈ 23.5 µM)
